The target in this test is recombinant protein MYT1 (Homo sapiens (Human), UniProt Q99640). The experiment in a line: In vitro assay for inhibiting MYT1 kinase activity (ADP-GLO). The test is classed as biochemical. The note with it: 10 μM ATP, read-out: Inhibitory activity against recombinant protein MYT1 IC50. The method, then: Recombinant MYT1 protein and the compounds were pre-incubated at room temperature for 15 min, and 10 μM ATP was then added to start the reaction. The mixture was incubated at room temperature for another 60 min, and the ADP-GLO reagent from Promega was then added. The resulting mixture was incubated in the dark for 40 min, a detection solution was then added, and the mixture was incubated for another 45-60 min. The chemiluminescence was determined using ENVISION. The inhibition rate and IC50 were calculated compared to the DMSO group.
recombinant protein MYT1, sequence (Q99640 whole entry): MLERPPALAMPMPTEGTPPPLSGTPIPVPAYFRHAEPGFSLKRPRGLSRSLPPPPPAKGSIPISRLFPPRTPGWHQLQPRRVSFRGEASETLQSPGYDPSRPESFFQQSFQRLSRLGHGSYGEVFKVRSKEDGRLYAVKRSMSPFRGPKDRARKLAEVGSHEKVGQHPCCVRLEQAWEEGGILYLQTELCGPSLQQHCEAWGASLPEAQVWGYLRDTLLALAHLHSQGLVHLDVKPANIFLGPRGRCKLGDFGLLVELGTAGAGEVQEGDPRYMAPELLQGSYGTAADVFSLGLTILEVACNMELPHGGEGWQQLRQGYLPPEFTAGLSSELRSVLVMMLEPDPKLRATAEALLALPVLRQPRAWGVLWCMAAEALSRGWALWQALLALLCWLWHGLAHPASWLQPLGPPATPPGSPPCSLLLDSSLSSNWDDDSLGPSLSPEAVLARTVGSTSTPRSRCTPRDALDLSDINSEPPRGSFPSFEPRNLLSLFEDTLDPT

On to `Cc1cc(F)c(O)c(C)c1-n1c(N)c(C(N)=O)c2cc3c(nc21)COC3` [Compound 134], for which the IC50 is not above 200 nM. For `Cc1ccc(O)c(C)c1-n1c(N)c(C(N)=O)c2cc3c(nc21)C=CC3` [Compound 109], the IC50 was not above 200 nM. For the compound `Cc1ccc(O)c(C)c1-n1c(N)c(C(N)=O)c2cc3c(nc21)N(C)CCC3` [Compound 105], the IC50 was not above 200 nM. In the case of `Cc1nc2c(cc1C#N)c(C(N)=O)c(N)n2-c1c(C(F)(F)F)ccc(O)c1C` [Compound 184], the IC50 is not above 200 nM. To `Cc1cc2c(cc1C#N)c(C(N)=O)c(N)n2-c1c(C)ccc(O)c1C` [Compound 154] belongs not above 200 nM.

As to `Cc1ccc(O)c(C)c1-n1c(N)c(C(N)=O)c2cc3c(nc21)CCOC3` [Compound 29], the IC50 was not above 200 nM. As for `Cc1ccc(O)c(C)c1-n1c(N)c(C(N)=O)c2cc3c(nc21)NCCC3` [Compound 103], the figure is not above 200 nM; as for `Cc1ccc(O)c(C)c1-n1c(N)c(C(N)=O)c2cc3cnncc3nc21` [Compound 56], not above 200 nM; as for `Cc1ccc(O)c(C)c1-n1c(N)c(C(N)=O)c2cc3c(ccn3C)nc21` [Compound 72], not above 200 nM. As for `Cc1ccc(O)c(C)c1-n1c(N)c(C(N)=O)c2cc3ccoc3nc21` [Compound 61], the IC50 is not above 200 nM. Turning to `Cc1ccc(O)c(C)c1-n1c(N)c(C(N)=O)c2cc3c(nc21)CCC=C3` [Compound 112], the IC50 was not above 200 nM. As to `Cc1ccc(O)c(C)c1-n1c(N)c(C(N)=O)c2cc3ccn(C)c3nc21` [Compound 71], the IC50 was not above 200 nM. For the compound `Cc1ccc(O)c(C)c1-n1c(N)c(C(N)=O)c2cc3nccnc3nc21` [Compound 53], the IC50 is not above 200 nM. With `Cc1ccc(O)c(C)c1-n1c(N)c(C(N)=O)c2cc3c(nc21)COCC3` [Compound 32], the IC50 was not above 200 nM. As for `Cc1nc2c(cc1C#N)c(C(N)=O)c(N)n2-c1c(C)c(O)cc(F)c1C` [Compound 137], the figure is not above 200 nM; as for `COc1cc(O)c(C)c(-n2c(N)c(C(N)=O)c3cc(C)c(C)nc32)c1C` [Compound 223], not above 200 nM; as for `Cc1cc(F)c(O)c(C)c1-n1c(N)c(C(N)=O)c2cc3ccccc3nc21` [Compound 180], not above 200 nM. `Cc1ccc(O)c(C)c1-n1c(N)c(C(N)=O)c2cc3c(nc21)CNC3` [Compound 84]: the IC50 was not above 200 nM. As for `Cc1cc2c(C(N)=O)c(N)n(-c3c(C)c(O)cc4c3CCC4)c2nc1C` [Compound 115], the figure is not above 200 nM; as for `Cc1ccc(O)c(C)c1-n1c(N)c(C(N)=O)c2cc3c(nc21)CCN3C` [Compound 87], not above 200 nM.

For `Cc1ccc(O)c(C)c1-n1c(N)c(C(N)=O)c2cc3sccc3nc21` [Compound 75], the IC50 was not above 200 nM.

Take `Cc1ccc(O)c(C)c1-n1c(N)c(C(N)=O)c2cc3c(nc21)CCCN3` [Compound 102]: the IC50 was not above 200 nM.

As for `Cc1cc2c(C(N)=O)c(N)n(-c3c(C)c(C)cc(O)c3C)c2nc1C` [Compound 205], the IC50 was not above 200 nM. For `Cc1cc2c(C(N)=O)c(N)n(-c3c(C)cc(F)c(O)c3C)c2nc1C#N` [Compound 146], the IC50 is not above 200 nM. As for `Cc1c(O)cc(F)c(C)c1-n1c(N)c(C(N)=O)c2cc3c(nc21)CCC3` [Compound 199], the figure is not above 200 nM; as for `Cc1ccc(O)c(C)c1-n1c(N)c(C(N)=O)c2cc3ocnc3nc21` [Compound 68], not above 200 nM; as for `Cc1ccc(O)c(C)c1-n1c(N)c(C(N)=O)c2cc3cscc3nc21` [Compound 76], not above 200 nM. As for `Cc1ccc(O)c(C)c1-n1c(N)c(C(N)=O)c2cc3c(nc21)CCCO3` [Compound 26], the figure is not above 200 nM; as for `Cc1ccc(O)c(C)c1-n1c(N)c(C(N)=O)c2cc3cccnc3nc21` [Compound 41], not above 200 nM; as for `Cc1ccc(O)c(C)c1-n1c(N)c(C(N)=O)c2cc3c(nc21)C=CCC3` [Compound 114], not above 200 nM. With `Cc1cc2c(C(N)=O)c(N)n(-c3c(C)c(O)cc4c3COC4)c2nc1C` [Compound 124], the IC50 is not above 200 nM. As for `Cc1cc2c(C(N)=O)c(N)n(-c3c(C)cc4c(c3C)NCC4)c2nc1C` [Compound 149], the half-maximal inhibitory concentration (IC50) is not above 200 nM.

Regarding `Cc1cc2c(C(N)=O)c(N)n(-c3c(C)c(O)cc(F)c3C)c2nc1C` (single isomer, unassigned) [Compound 1], the IC50 was not above 200 nM. For the compound `Cc1c(O)cc(F)c(C)c1-n1c(N)c(C(N)=O)c2cc3ccccc3nc21` [Compound 179], the IC50 is not above 200 nM.

As for `Cc1ccc(O)c(C)c1-n1c(N)c(C(N)=O)c2cc3c(nc21)CC=CC3` [Compound 113], the concentration for half-maximal inhibition (IC50) was not above 200 nM.

Take `Cc1ccc(O)c(C)c1-n1c(N)c(C(N)=O)c2cc3c(nc21)OCO3` [Compound 38]: the IC50 is not above 200 nM. Regarding `Cc1cc2c(C(N)=O)c(N)n(-c3c(C)ccc(=O)n3C)c2nc1C` [Compound 178], the IC50 was not above 200 nM. On to `Cc1cc2c(C(N)=O)c(N)n(-c3c(C)c(O)cc4ccoc34)c2nc1C` [Compound 130], for which the IC50 is not above 200 nM.

Regarding `Cc1cc2c(C(N)=O)c(N)n(-c3c(C)c(O)cc(I)c3C)c2nc1C` [Compound 217], the IC50 is not above 200 nM. Take `Cc1ccc(O)c(C)c1-n1c(N)c(C(N)=O)c2cc3c(nc21)OCC3` [Compound 20]: the IC50 was not above 200 nM. With `Cc1ccc(O)c(C)c1-n1c(N)c(C(N)=O)c2cc3ncoc3nc21` [Compound 67], the IC50 is not above 200 nM. To `Cc1ccc(O)c(C)c1-n1c(N)c(C(N)=O)c2cc3cnccc3nc21` [Compound 47] belongs not above 200 nM.

On to `Cc1ccc(O)c(C)c1-n1c(N)c(C(N)=O)c2cc3cocc3nc21` [Compound 63], for which the IC50 is not above 200 nM. As to `Cc1cc2c(C(N)=O)c(N)n(-c3c(C)c(O)cc4c3OCC4)c2nc1C` [Compound 118], the IC50 was not above 200 nM.

For `Cc1ccc(O)c(C)c1-n1c(N)c(C(N)=O)c2cc3ccsc3nc21` [Compound 74], the IC50 was not above 200 nM. For the compound `Cc1ccc(O)c(C)c1-n1c(N)c(C(N)=O)c2cc3c(nc21)NCC3` [Compound 80], the IC50 was not above 200 nM. Take `Cc1ccc(O)c(C)c1-n1c(N)c(C(N)=O)c2cc3ncn(C)c3nc21` [Compound 65]: the IC50 was not above 200 nM. To `Cc1cc2c(C(N)=O)c(N)n(-c3c(C)c(O)cc(Cl)c3C)c2nc1C` [Compound 193] belongs not above 200 nM; to `Cc1c(O)cc(F)c(C)c1-n1c(N)c(C(N)=O)c2cc3c(nc21)COC3` [Compound 131], not above 200 nM; to `Cc1cc2c(C(N)=O)c(N)n(-c3c(C)c(O)cc4occc34)c2nc1C` [Compound 129], not above 200 nM. `Cc1cc2c(C(N)=O)c(N)n(-c3c(C)cc4c(c3C)OCC4)c2nc1C` [Compound 152]: the IC50 is not above 200 nM. Turning to `Cc1ccc(O)c(C)c1-n1c(N)c(C(N)=O)c2cnc(C#N)cc21` [Compound 172], the IC50 is not above 200 nM. Consider `Cc1cc2c(cc1C#N)c(C(N)=O)c(N)n2-c1c(C)cc(F)c(O)c1C` [Compound 163], for which the IC50 was not above 200 nM. For `Cc1cc2c(C(N)=O)c(N)n(-c3c(C)c(O)cc(C(F)(F)F)c3C)c2nc1C` [Compound 208], the IC50 was not above 200 nM.

For the compound `Cc1ccc(O)c(C)c1-n1c(N)c(C(N)=O)c2cc3c(nc21)CCO3` [Compound 18], the IC50 was not above 200 nM. As for `Cc1c(O)cc(F)c(C)c1-n1c(N)c(C(N)=O)c2cc3c(nc21)C=CC3` [Compound 214], the IC50 was not above 200 nM.

For `Cc1ccc(O)c(C)c1-n1c(N)c(C(N)=O)c2cc3nc[nH]c3nc21` [Compound 64], the IC50 was not above 200 nM. As to `Cc1ccc(O)c(C)c1-n1c(N)c(C(N)=O)c2cc3c(nc21)CC=C3` [Compound 106], the IC50 was not above 200 nM. Regarding `Cc1cc2c(C(N)=O)c(N)n(-c3c(C)ccc(O)c3C)c2cc1C#N` [Compound 157], the IC50 is not above 200 nM. Regarding `Cc1cc2c(C(N)=O)c(N)n(-c3c(C)c(O)cc4c3CCO4)c2nc1C` [Compound 121], the half-maximal inhibitory concentration (IC50) was not above 200 nM. On to `Cc1ccc(O)c(C)c1-n1c(N)c(C(N)=O)c2cc3c(nc21)CN(C)CC3` [Compound 99], for which the IC50 is not above 200 nM. As for `Cc1ccc(O)c(C)c1-n1c(N)c(C(N)=O)c2cc3ccncc3nc21` [Compound 44], the IC50 is not above 200 nM.

On to `Cc1cc2c(C(N)=O)c(N)n(-c3c(C)ccc(O)c3C(F)(F)F)c2nc1C#N` [Compound 187], for which the IC50 was not above 200 nM.

As to `Cc1ccc(O)c(C)c1-n1c(N)c(C(N)=O)c2cc3cnncc3cc21` [Compound 59], the half-maximal inhibitory concentration (IC50) was not above 200 nM. To `Cc1ccc(O)c(C(F)(F)F)c1-n1c(N)c(C(N)=O)c2cc(C#N)c(C)nc21` [Compound 181] belongs not above 200 nM; to `Cc1ccc(O)c(C)c1-n1c(N)c(C(N)=O)c2cc3c(nc21)CN(C)C3` [Compound 93], not above 200 nM. For the compound `Cc1ccc(O)c(C)c1-n1c(N)c(C(N)=O)c2cc3c(nc21)N(C)CC3` [Compound 90], the IC50 was not above 200 nM. In the case of `Cc1cc2c(C(N)=O)c(N)n(-c3c(Cl)cc(F)c(O)c3C)c2nc1C` [Compound 4], the IC50 was not above 200 nM.

On to `Cc1cc2c(C(N)=O)c(N)n(-c3c(C)c(O)cc(Br)c3C)c2nc1C` [Compound 196], for which the IC50 was not above 200 nM. Consider `Cc1ccc(O)c(C)c1-n1c(N)c(C(N)=O)c2cc3ncsc3nc21` [Compound 69], for which the IC50 was not above 200 nM. Turning to `Cc1c(O)cc(F)c(C)c1-n1c(N)c(C(N)=O)c2cc3c(nc21)CC=C3` [Compound 211], the IC50 is not above 200 nM. As for `Cc1c(O)cc(F)c(C)c1-n1c(N)c(C(N)=O)c2cc3c(nc21)CCCC3` [Compound 202], the IC50 was not above 200 nM. Take `Cc1ccc(O)c(C)c1-n1c(N)c(C(N)=O)c2cc3cn(C)cc3nc21` [Compound 73]: the IC50 is not above 200 nM. Take `Cc1cc2c(C(N)=O)c(N)n(-c3c(C(F)(F)F)ccc(O)c3C)c2nc1C#N` [Compound 186]: the half-maximal inhibitory concentration (IC50) was not above 200 nM.
